The results in this text go back to patent publication US9913846B2, “Combination of a PI3 kinase inhibitor with pacitaxel for use in the treatment or prevention of a cancer of the head and neck” (NOVARTIS AG, priority 2013, dated 2018).

One data set has as its system UMSCC11A. The data set can be described thus: Cancer cell growth inhibition, cell counting after 5 days. Format: cell-based. Particulars: 120 h. The protocol:
(§1) Data was compared with untreated controls. […] Experiments were carried out in duplicate. The table below details the results.

The subject of a further data set is UMSCC5. The data set is described as above. The data set is classed as cell-based. Particulars: UM-SCC-5, 120 h. The protocol:
as §1

The subject of the next data set is UMSCC1. Described as above. The data set is classed as cell-based. Particulars: Homo sapiens, 120 h. As for the experimental part: as §1
Another data set has as its system UPCISCC153. Described as above. Format: cell-based. Particulars: 120 h. As for the experimental part: as §1
Data set [1] concerns head and neck cancer cell lines. The data set can be described thus: Sensitivity of head and neck cancer cell line panels to Compound A (FIG. 1). Particulars: majority of the cell lines of two independently tested panels. The data set is classed as cell-based. The text has this:
(§2) (Red=KRAS mutant=UMSCC-74A. Yellow=PI3KCA mutant=CAL33).

Data set [2] can be described thus: Concentration delivered to patients. Format: in vivo, human. Particulars: patients treated at 100 mg daily; expected.
Description: as §2

Data set [3] deals with pAKT in FaDu xenograft (Hypopharynx squamous cell carcinoma). The data set can be described thus: pAKT in tumor tissue of FaDu xenograft (FIG. 2). Format: in vivo. Particulars: Compound A at 30 mg daily.

One may read the inhibition as how much of the control response was suppressed. In the case of `CC(=O)O[C@H]1C(=O)[C@@]2(C)[C@H]([C@H](OC(=O)c3ccccc3)[C@]3(O)C[C@H](OC(=O)[C@H](O)[C@@H](NC(=O)c4ccccc4)c4ccccc4)C(C)=C1C3(C)C)[C@]1(OC(C)=O)CO[C@@H]1C[C@@H]2O` [Paclitaxel, 5β,20-Epoxy1,2a,4,7β, 10β, 13a-hexahydroxytax-11-en-9-one 4, 10,-diacetate 2-benzoate 13-ester with (2R, 3S)—N-benzoyl-3-phenylisoserine, reference compound], the inhibition at 0.001 µg/mL with UMSCC11A (paclitaxel 1 ng/ml) was found to be 3.13%; with UMSCC5 (paclitaxel 1 ng/ml) it was 7.6%; with UMSCC1 (paclitaxel 1 ng/ml), 4.6%; in the data set with UPCISCC153 (paclitaxel 1 ng/ml), 0%.

The term IC50 denotes the point on the concentration scale where inhibition reaches its midpoint. A lower IC50 goes with greater potency in that assay. `Nc1cc(C(F)(F)F)c(-c2cc(N3CCOCC3)nc(N3CCOCC3)n2)cn1` [Compound A, 5-(2,6-di-morpholin-4-yl-pyrimidin-4-yl)-4-trifluoromethyl-pyridin-2-ylamine]: the IC50 in data set [1] was below 1000 nM. In addition, in data set [2], the “concentration delivered to patients” value is “around 1 μM”. In addition, the “pAKT in tumor tissue” value in data set [3] is recorded as “inhibition of pAKT”. Moreover, the inhibition at 1 µM came out at 21.9% with UMSCC11A (Compound A 1 μM), 28% in the data set with UMSCC5 (Compound A 1 μM), 21.2% with UMSCC1 (Compound A 1 μM) and 15% in the data set with UPCISCC153 (Compound A 1 μM).
